Measured values reported in ChEMBL document CHEMBL1201862, “PubChem BioAssay data set” (2004).
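A five-concentration, 48-hour dose response in 96-well plates underlies each endpoint, interpolated linearly between surrounding concentrations. GI50 is the concentration that inhibits growth by half.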 Activity calls are given as the source filed them. Cut-off read from the data, not from the text of the source: active = GI50 up to about 1.1 µM and inactive = higher.

Assays:
Test in all cases: inhibition of tumour cell growth, NCI panel, 48 h
[1] = system: ACHN
[2] = system: CAKI-1
[3] = system: HOP-62
[4] = system: KM12
[5] = system: LOX IMVI
[6] = system: MOLT-4
[7] = system: NCI-H23
[8] = system: OVCAR-3
[9] = system: OVCAR-5
[10] = system: OVCAR-8
[11] = system: RPMI-8226
[12] = system: SF-268
[13] = system: SK-MEL-5
[14] = system: SN12C
[15] = system: TK-10
[16] = system: UACC-257
[17] = system: UO-31
[18] = system: A498
[19] = system: HCC 2998

Which results are given for `CC(=O)Nc1ccc(-c2nnc(SCC(=O)Nc3ccc(C)cc3)o2)cc1`?
GI50 [1]: 31.6 µM (inactive); GI50 [2]: 11.9 µM (inactive); GI50 [3]: 56.2 µM (inactive); GI50 [4]: 19.1 µM (inactive); GI50 [5]: 15.2 µM (inactive); GI50 [6]: 32.1 µM (inactive); GI50 [7]: 15.7 µM (inactive); GI50 [8]: 22.4 µM (inactive); GI50 [9]: 19.6 µM (inactive); GI50 [10]: 27.7 µM (inactive); GI50 [11]: 26.2 µM (inactive); GI50 [12]: 20.1 µM (inactive); GI50 [13]: 14.7 µM (inactive); GI50 [14]: 15.8 µM (inactive); GI50 [15]: 27.8 µM (inactive); GI50 [16]: 20.3 µM (inactive); GI50 [17]: 47.6 µM (inactive)

What does the source list for `Nc1nc2c(ncn2C2OC(CO)C(O)C2N)c(=O)[nH]1` (configuration not stated)?
GI50 [18]: > 100 µM (inactive); GI50 [1]: > 100 µM (inactive); GI50 [2]: > 100 µM (inactive); GI50 [19]: > 100 µM (inactive); GI50 [3]: > 100 µM (inactive); GI50 [4]: > 100 µM (inactive); GI50 [5]: 60.1 µM (inactive); GI50 [6]: > 100 µM (inactive); GI50 [7]: > 100 µM (inactive); GI50 [8]: > 100 µM (inactive); GI50 [9]: > 100 µM (inactive); GI50 [10]: > 100 µM (inactive); GI50 [12]: > 100 µM (inactive); GI50 [14]: > 100 µM (inactive); GI50 [15]: > 100 µM (inactive); GI50 [16]: > 100 µM (inactive); GI50 [17]: > 100 µM (inactive)

For `CN(C)CCC(CCN(C)C)=NOC(=O)c1ccccc1`, which GI50 [18] is on record?
Its GI50 is > 100 µM (inactive).

And the GI50 [1]?
The GI50 was > 100 µM (inactive).

What about the GI50 [2] of the same compound?
Its GI50 is > 100 µM (inactive).

What about the GI50 [19] of the same compound?
Its GI50 is > 100 µM (inactive).

And the GI50 [3]?
Its GI50 is > 100 µM (inactive).

What about the GI50 [4] of the same compound?
Its GI50 is > 100 µM (inactive).

And the GI50 [6]?
Its GI50 is > 100 µM (inactive).

What about the GI50 [7] of the same compound?
Its GI50 is > 100 µM (inactive).

What about the GI50 [8] of the same compound?
Its GI50 is > 100 µM (inactive).

What about the GI50 [10] of the same compound?
Its GI50 is > 100 µM (inactive).

What about the GI50 [11] of the same compound?
The GI50 was > 100 µM (inactive).

What about the GI50 [12] of the same compound?
The GI50 was > 100 µM (inactive).

What about the GI50 [13] of the same compound?
The GI50 was > 100 µM (inactive).

And the GI50 [14]?
Its GI50 is > 100 µM (inactive).

And the GI50 [15]?
Its GI50 is > 100 µM (inactive).

What about the GI50 [16] of the same compound?
The GI50 was > 100 µM (inactive).

And the GI50 [17]?
The GI50 was > 100 µM (inactive).

Which GI50 [18] does the source give for `CC(Oc1ccc2c(=O)cc(-c3ccccc3)oc2c1)C(=O)O` (configuration not stated) here?
The GI50 was > 100 µM (inactive).

What about the GI50 [1] of the same compound?
Its GI50 is > 100 µM (inactive).

What about the GI50 [2] of the same compound?
The GI50 was > 100 µM (inactive).

And the GI50 [19]?
The GI50 was > 100 µM (inactive).

And the GI50 [3]?
The GI50 was > 100 µM (inactive).

And the GI50 [4]?
The GI50 was > 100 µM (inactive).

And the GI50 [5]?
Its GI50 is > 100 µM (inactive).

And the GI50 [6]?
The GI50 was > 100 µM (inactive).

And the GI50 [7]?
The GI50 was > 100 µM (inactive).

What about the GI50 [8] of the same compound?
Its GI50 is > 100 µM (inactive).

What about the GI50 [10] of the same compound?
The GI50 was > 100 µM (inactive).

And the GI50 [12]?
The GI50 was > 100 µM (inactive).

What about the GI50 [13] of the same compound?
The GI50 was > 100 µM (inactive).

What about the GI50 [14] of the same compound?
The GI50 was > 100 µM (inactive).

What about the GI50 [15] of the same compound?
The GI50 was > 100 µM (inactive).

What about the GI50 [16] of the same compound?
The GI50 was > 100 µM (inactive).

What about the GI50 [17] of the same compound?
Its GI50 is > 100 µM (inactive).

Which results are given for `COc1ccc(NC(=O)COC(=O)c2cccc3c(=O)c4ccccc4[nH]c23)cc1`?
GI50 [18]: 11.3 µM (inactive); GI50 [1]: 21.1 µM (inactive); GI50 [2]: 19.5 µM (inactive); GI50 [19]: 51.1 µM (inactive); GI50 [3]: 23.8 µM (inactive); GI50 [4]: 16.9 µM (inactive); GI50 [5]: 15 µM (inactive); GI50 [6]: 14.2 µM (inactive); GI50 [7]: 15.1 µM (inactive); GI50 [8]: 22.1 µM (inactive); GI50 [10]: 22.4 µM (inactive); GI50 [12]: 22.3 µM (inactive); GI50 [13]: 15.3 µM (inactive); GI50 [14]: 27.5 µM (inactive); GI50 [15]: 15.8 µM (inactive); GI50 [16]: 19.9 µM (inactive); GI50 [17]: 14.8 µM (inactive)

Which results are given for `Cc1cccc2[n+]1[C@H]1[C@H]([C@@H]3O[C@H]1c1ccccc13)[S+]([O-])N2` (some centres not stated)?
GI50 [18]: 93.3 µM (inactive); GI50 [1]: 57.7 µM (inactive); GI50 [19]: 72.8 µM (inactive); GI50 [3]: 48.1 µM (inactive); GI50 [4]: 42.4 µM (inactive); GI50 [5]: 25.9 µM (inactive); GI50 [6]: 38.2 µM (inactive); GI50 [8]: 35.9 µM (inactive); GI50 [9]: 80.7 µM (inactive); GI50 [10]: 9.98 µM (inactive); GI50 [11]: 10.8 µM (inactive); GI50 [12]: 41.1 µM (inactive); GI50 [15]: 90.4 µM (inactive); GI50 [16]: 32.5 µM (inactive); GI50 [17]: 64.7 µM (inactive)

With `O=C1/C(=C/c2ccc(Cl)cc2)CNC/C1=C\c1ccc(Cl)cc1` as the compound, how does the GI50 [18] read?
Its GI50 is 2.32 µM (inactive).

What about the GI50 [1] of the same compound?
The GI50 was 2.07 µM (inactive).

And the GI50 [2]?
The GI50 was 2.44 µM (inactive).

What about the GI50 [19] of the same compound?
The GI50 was 2.23 µM (inactive).

And the GI50 [3]?
Its GI50 is 3.42 µM (inactive).

What about the GI50 [4] of the same compound?
The GI50 was 1.44 µM (inactive).

And the GI50 [6]?
Its GI50 is 2.28 µM (inactive).

What about the GI50 [7] of the same compound?
The GI50 was 1.95 µM (inactive).

And the GI50 [8]?
The GI50 was 1.86 µM (inactive).

And the GI50 [10]?
Its GI50 is 3.6 µM (inactive).

And the GI50 [11]?
Its GI50 is 0.267 µM (active).

What about the GI50 [13] of the same compound?
The GI50 was 6.73 µM (inactive).

What about the GI50 [14] of the same compound?
The GI50 was 2.67 µM (inactive).

What about the GI50 [15] of the same compound?
The GI50 was 4.06 µM (inactive).

`O=C(O)/C=C/C(=O)O` [FUMARIC ACID] was tested. Which GI50 [1] did it give?
Its GI50 is > 100 µM (inactive).

What about the GI50 [2] of the same compound?
Its GI50 is > 100 µM (inactive).

And the GI50 [19]?
Its GI50 is > 100 µM (inactive).

What about the GI50 [3] of the same compound?
Its GI50 is > 100 µM (inactive).

And the GI50 [4]?
The GI50 was > 100 µM (inactive).

What about the GI50 [5] of the same compound?
Its GI50 is > 100 µM (inactive).

And the GI50 [6]?
Its GI50 is > 100 µM (inactive).

And the GI50 [7]?
Its GI50 is > 100 µM (inactive).

What about the GI50 [8] of the same compound?
Its GI50 is > 100 µM (inactive).

And the GI50 [9]?
Its GI50 is > 100 µM (inactive).

And the GI50 [10]?
The GI50 was > 100 µM (inactive).

What about the GI50 [11] of the same compound?
The GI50 was > 100 µM (inactive).

And the GI50 [12]?
The GI50 was > 100 µM (inactive).

What about the GI50 [13] of the same compound?
Its GI50 is > 100 µM (inactive).

What about the GI50 [14] of the same compound?
The GI50 was > 100 µM (inactive).

What about the GI50 [15] of the same compound?
Its GI50 is > 100 µM (inactive).

What about the GI50 [16] of the same compound?
The GI50 was > 100 µM (inactive).

And the GI50 [17]?
Its GI50 is > 100 µM (inactive).
